Assay results: article PMC9785280, “Synthesis, Antiproliferative Evaluation and QSAR Analysis of Novel Halogen- and Amidino-Substituted Benzothiazoles and Benzimidazoles” (International Journal of Molecular Sciences, 2022)

Legend:
[1] = test system: HeLa (cervical adenocarcinoma) cells; experiment: MTT antiproliferative assay, HeLa; format: cell-based; details: Homo sapiens, 72 h, mean ± SD of three independent experiments
Procedure: (§1) The growth inhibition activity was assessed according to the slightly modified procedure performed at the National Cancer Institute, Developmental Therapeutics Program.
(§2) Examined compounds were dissolved in DMSO (1 × 10^−2 M). The experiments were carried out on seven human tumor cell lines and two normal cell lines. The following cell lines were used: HeLa (human cervical adenocarcinoma; purchased from ATCC), CaCo-2 (human colorectal adenocarcinoma), HuT78 (T-cell lymphoma), THP-1 (acute monocytic leukemia), SW620 (colorectal adenocarcinoma, metastatic), MDA-MB-231 (human breast adenocarcinoma), HL60 (promyelocytic leukemia cell line), foreskin fibroblast cells (BJ) and MDCK1 (Madine–Darby canine kidney fibroblast like cells). MDCK1 cells were used between 24 and 26 passages.
(§3) Adherent cells were cultured in the Dulbecco’s modified Eagle medium—DMEM (Gibco, EU) supplemented with 10 % heat-inactivated fetal bovine serum (FBS, Gibco, EU), 2 mM glutamine, and 100 U/0.1 mg penicillin/streptomycin. Cells on suspension were cultured in RPMI 1640 (Gibco, EU) medium supplemented with 10 % FBS (Gibco, EU), 2 mM glutamine, 1 mM sodium pyruvate, 10 mM HEPES. Cells were grown in humidified atmosphere under the conditions of 37 °C/5% of CO2 gas in the CO2 incubator (IGO 150 CELLlife^TM, JOUAN, Thermo Fisher Scientific, Waltham, MA, USA). A erythrosin B (Sigma-Aldrich, St. Louis, MO, USA) dye exclusion method was used to assess cell viability before plating.
(§4) Adherent cells (HeLa, CaCo-2, MCF-7 and MDCK-1) were plated in 96-well flat bottom plates (Greiner, Frickenhausen, Austria) at a concentration of 2 × 10^4 cells/mL. Suspension cells (THP-1 and HuT78) were plated in 96-well microtiter plates (Sarstead, Newton, USA) at a concentration of 1 × 10^5 cells/mL. Twenty-four hours later, cells were treated with test agents in […] 10-fold dilutions ([…] to 10^−4 M) and incubated for further 72 h. Working dilutions were freshly prepared on the day of testing. The solvent was also tested for eventual inhibitory activity by adjusting its concentration to be the same as in working concentrations. After 72 h of incubation, the cell growth rate was evaluated by performing the MTT assay, which detects dehydrogenase activity in viable cells. For this purpose, upon completion of the incubation period, growth medium was discarded and 50 μL of MTT was added to each well at a concentration of 5 mg/mL. After four hours of incubation at 37 °C, water insoluble MTT-formazan crystals were dissolved in 150 μL of dimethyl-sulfoxide (DMSO) for adherent cells, and in 10 % SDS with 0.01 M/L HCl for cells grown in suspension. The absorbance (OD, optical density) was measured on a microplate reader (iMark, BIO RAD, Hercules, CA, USA) at 595 nm.
(§5) Percent of life cells was calculated as follows: % = OD (sample)–OD (background)/OD (control)–OD (background) × 100.
(§6) Optical density (OD) of background for adherent cells is the OD of MTT solution and DMSO; OD (background) for suspension cells is OD of the culture medium with MTT and 10% SDS with 0.01 M/L HCl; OD (control) is the OD of the cells growth without tested compounds.
(§7) Calculation of GI50 value curves and QC analysis is performed by using the Excel tools and GraphPadPrism software (La Jolla, CA), v. 5.03. Briefly, individual concentration effect curves are generated by plotting the logarithm of the concentration of tested compounds(X) vs. corresponding percent inhibition values (Y) using least squares fit. The best fit GI50 values are calculated using Log (inhibitor) versus normalized response—Variable slope equation, where Y Ľ 100/(1 ţ 10 ((LogIC50 _ X) * HillSlope)). QC criteria parameters (Z0, S:B, R2, HillSlope) were checked for every GI50 curve.

[2] = test system: CaCo-2 (colon adenocarcinoma) cells; experiment: MTT antiproliferative assay, CaCo-2; format: cell-based, human; details: for IC50: Homo sapiens, Caco-2, 72 h, MTT, mean ± SD of three independent experiments
Procedure: as §1, §2, §3, §4, §5, §6
as §7, with “The best fit GI50 values are calculated using Log (inhibitor) versus normalized response—Variable slope equation, where Y Ľ 100/(1 ţ 10 ((LogIC50 _ X) * HillSlope)).” left out

human fibroblasts (BJ) = experiment: MTT antiproliferative assay, normal BJ fibroblasts; format: cell-based; details: Homo sapiens, Fibroblast, 72 h, MTT, mean ± SD of three independent experiments; normal cells
Procedure: as §1, §2, §3, §4, §5, §6, §7

[3] = test system: HuT78 (T-cell lymphoma) cells; experiment: MTT antiproliferative assay, HuT78; format: cell-based, human; details: for IC50: Homo sapiens, HuT78, 72 h, 72 h, MTT, mean ± SD of three independent experiments; for SI (BJ) HuT78: SI = IC50 BJ / IC50 HuT78; for SI (MDCK) HuT78: SI = IC50 MDCK1 / IC50 HuT78
Procedure: as §1, §2, §3, §4, §5, §6, §7

[4] = test system: MDCK1 (Madin–Darby canine kidney) cells; experiment: MTT antiproliferative assay, non-tumor MDCK1 cells; format: cell-based; details: Canis lupus familiaris, MDCK1, 72 h, mean ± SD of three independent experiments, normal cells
Procedure: as §1, §2, §3, §4, §5, §6, §7

Structure (SMILES) | melting point [°C] | IC50 [1] [µM] | IC50 [2] [µM] | SI (BJ) CaCo-2 ([2]; SI = IC50 BJ / IC50 CaCo-2) | IC50 (human fibroblasts (BJ)) [µM] | IC50 [3] [µM] | SI (BJ) HuT78 [3] | SI (MDCK) HuT78 [3] | IC50 [4] [µM]
COc1cc(-c2nc3ccccc3s2)ccc1OCc1ccccn1 [20c] | 110 to 115 | > 100 | 89.2 ± 16.8 | 1.12 | > 100 | 64.7 ± 11.3 | 1.55 | 1.33 | 85.9 ± 15.7
Clc1ccc2nc(-c3ccc(OCc4c[nH]nn4)cc3)sc2c1 [21a, 6-Chloro-2-(4-((1H-1,2,3-triazol-4-yl)methoxy)phenyl)benzothiazole] | 220 to 223 | > 100 | > 100 | – | > 100 | 6.8 ± 6.2 | 14.7 | 1.85 | 12.6 ± 4.8
Cl.c1ccc(COc2ccc(-c3nc4ccc(C5=NCCN5)cc4s3)cc2)nc1 [35a, 2-(4-(Pyridin-2-ylmethoxy)phenyl)-6-(4,5-dihydro-1H-imidazol-2-yl)benzothiazole hydrochloride] | > 250 | 18.9 ± 3.6 | 26.7 ± 2.1 | – | 3.2 ± 0.3 | 1.4 ± 0.2 | – | – | 2.7 ± 0.3
O=C(COc1ccc(-c2nc3ccc(Cl)cc3s2)cc1F)c1ccccc1 [15b, 6-Chloro-2-(3-fluoro-4-(2-oxo-2-phenylethoxy)phenyl)benzothiazole] | 192 to 195 | > 100 | > 100 | – | > 100 | > 100 | – | – | > 100
Fc1cc(-c2nc3ccc(Cl)cc3s2)ccc1OCc1cn(Cc2ccccc2)nn1 [24b, 6-Chloro-2-(3-fluoro-4-((1-benzyl-1H-1,2,3-triazol-4-yl)methoxy)phenyl)benzothiazole] | 181 to 186 | > 100 | > 100 | – | > 100 | > 100 | – | – | 8.8 ± 8.3
COc1cc(-c2nc3ccc(F)cc3s2)ccc1OCC(=O)c1ccccc1 [16c, 6-Fluoro-2-(3-methoxy-4-(2-oxo-2-phenylethoxy)phenyl)benzothiazole] | 178 to 181 | > 100 | > 100 | – | > 100 | > 100 | – | – | 6.8 ± 6.2
Fc1cc(-c2nc3ccc(Cl)cc3s2)ccc1OCc1c[nH]nn1 [21b, 6-Chloro-2-(3-fluoro-4-((1H-1,2,3-triazol-4-yl)methoxy)phenyl)benzothiazole] | 205 to 209 | > 100 | > 100 | – | 84.1 ± 24.7 | 3.6 ± 3.1 | 23.36 | 2.8 | 10.1 ± 4.5
Fc1cc(-c2nc3ccccc3s2)ccc1OCc1c[nH]nn1 [23b, 2-(3-Fluoro-4-((1H-1,2,3-triazol-4-yl)methoxy)phenyl)benzothiazole] | 185 to 189 | 34.9 ± 14.8 | 56 ± 14.6 | – | 40.5 ± 17.2 | 17.1 ± 7.7 | 2.34 | 1.6 | 27.4 ± 4.2
Fc1ccc2nc(-c3ccc(OCc4ccccn4)cc3)sc2c1 [19a] | 165 to 170 | > 100 | > 100 | – | > 100 | > 100 | – | – | 1.1 ± 0.2
O=C(COc1ccc(-c2nc3ccc(Cl)cc3s2)cc1)c1ccccc1 [15a, 6-Chloro-2-(4-(2-oxo-2-phenylethoxy)phenyl)benzothiazole] | 192 to 195 | > 100 | > 100 | – | > 100 | > 100 | – | – | > 100
O=C(COc1ccc(-c2nc3ccccc3s2)cc1F)c1ccccc1 [17b, 2-(3-Fluoro-4-(2-oxo-2-phenylethoxy)phenyl)benzothiazole] | 174 to 177 | > 100 | > 100 | – | > 100 | > 100 | – | – | > 100
COc1cc(-c2nc3ccc(F)cc3s2)ccc1OCc1cn(Cc2ccccc2)nn1 [25c, 6-Fluoro-2-(3-methoxy-4-((1-benzyl-1H-1,2,3-triazol-4-yl)methoxy)phenyl)benzothiazole] | 180 to 183 | > 100 | 77.6 ± 43.3 | – | > 100 | > 100 | – | – | 22.8 ± 4.9
c1ccc(Cn2cc(COc3ccc(-c4nc5ccccc5s4)cc3)nn2)cc1 [26a, 2-(4-((1-Benzyl-1H-1,2,3-triazol-4-yl)methoxy)phenyl)benzothiazole] | 210 to 214 | > 100 | > 100 | – | > 100 | > 100 | – | – | 36.7 ± 18
COc1cc(-c2nc3ccc(C4=NCCN4)cc3s2)ccc1OCc1cn(Cc2ccccc2)nn1.Cl [37c, 2-(3-Methoxy-4-((1-benzyl-1H-1,2,3-triazol-4-yl)methoxy)phenyl)-6-(4,5-dihydro-1H-imidazol-2-yl)benzothiazole hydrochloride] | > 240 | 3.4 ± 0.2 | 4.5 ± 2.7 | – | 4.8 ± 3.5 | 3 ± 1 | 1.6 | – | 2.6 ± 0.1
Fc1ccc2nc(-c3ccc(OCc4ccccn4)c(F)c3)sc2c1 [19b] | 190 to 195 | > 100 | > 100 | – | > 100 | > 100 | – | – | 16.3 ± 11.5
COc1cc(-c2nc3ccc(C4=NCCN4)cc3s2)ccc1OCC(=O)c1ccccc1.Cl [34c, 2-(3-Methoxy-4-(2-oxo-2-phenylethoxy)phenyl)-6-(4,5-dihydro-1H-imidazol-2-yl)benzothiazole hydrochloride] | > 240 | 3.1 ± 0.2 | 6.3 ± 3 | – | 4 ± 0.1 | 1.8 ± 0.7 | – | – | 2.1 ± 0.3
COc1cc(-c2nc3ccccc3s2)ccc1OCc1c[nH]nn1 [23c, 2-(3-Methoxy-4-((1H-1,2,3-triazol-4-yl)methoxy)phenyl)benzothiazole] | 177 to 180 | 45.7 ± 16.3 | 96.4 ± 13.3 | – | > 100 | 20 ± 8.7 | 5.0 | – | 29.5 ± 7.2
Fc1ccc2nc(-c3ccc(OCc4c[nH]nn4)cc3)sc2c1 [22a, 6-Fluoro-2-(4-((1H-1,2,3-triazol-4-yl)methoxy)phenyl)benzothiazole] | 212 to 215 | 54.5 ± 29.4 | 73.5 ± 4.5 | – | > 100 | 14.9 ± 10.8 | 6.71 | – | 1.1 ± 0.2
c1ccc(COc2ccc(-c3nc4ccccc4s3)cc2)nc1 [20a, 2-(4-(Pyridin-2-ylmethoxy)phenyl)benzothiazole] | 132 to 136 | > 100 | > 100 | – | > 100 | > 100 | – | – | 65.7 ± 11.8
